From patent US6613351B1, “Compound capable of introducing at least one molecule into a cell” (Biotech Tools S.A., priority 1993, dated 2003)

What was measured:
CHO cells = experiment: Transfection of adherent CHO cells with CAT plasmid, CAT assay; assay type: cell-based, Chinese Hamster; conditions: for transfection efficiency of the CAT gene, percentage of acetylated chloramphenicol in the cellular extract: adherent cells (CHO), 3 h incubation, medium with serum
Experimental: (§1) 5 μg of plasmid DNA and 11 μg (11 μl) of pure diC14-amidine suspension (for 25 μg (25 μl) of diC14-amidine/PE suspension (see example 2)) are separately diluted in a final volume of 50 μl with distilled water and sterilized. Both solutions are then mixed and incubated for 15 min at room temperature.
The cells are cultured in 6-well culture dishes until they are 80-90% confluent.
The suspension containing the complex (diC14-amidine-DNA or diC14-amidine/PE-DNA) is gently mixed with 2 ml of culture medium. The culture medium used for the transfection operation is identical to the usual culture medium for the cells to be transformed. The medium is prepared with 2.5% or without serum.
The mixture thus formed constitutes the “transfection medium”. The cells (about 10^6) are washed with the culture medium and the transfection medium is added. The medium is incubated for the desired period. This period may depend on the cell line to be transfected but an incubation time of 2-3 h is generally used. After incubation, the transfection medium is replaced with fresh medium; 6 hours later, the cells can be […] into 100 mm culture dishes.
(§2) CHO (Chinese Hamster Ovary) cells are cultured in F12 medium supplemented with 1% glutamine and 1% penicillin/streptomycin and containing 10% FCS (Fetal Calf Serum, K562 (human myeloid) cells are cultured in RFMI medium supplemented with antibiotics and non-essential amino acids and containing 10% FCS (0.5-1×10^6 cells/ml). Both cell lines are cultured under a CO2 atmosphere (37° C., 5% CO2).
(§3) The plasmid used is derived from the commercial plasmid pCMV5 into which the bacterial replication origin S1, the ampicillin resistance gene and the CAT gene of bacterial origin have been inserted. It is approximately 5000 base pairs in size and is stored at a concentration of 1 mg/ml.
The general procedure described above was followed; 5 μg (5 μl) of plasmid DNA and 11 μg (11 μl) of pure diC14-amidine suspension (or 25 μg (25 μl) of diC14-amidine/PE suspension) prepared as described above are used. The CHO cells (adherent) are plated in the 6-well culture dishes the day before the experiment in an amount of 10^6 cells/well; while the K562 cells (in suspension) are used in an amount of 10^6 cells per experiment.
(§4) The incubation was carried out for 3 h for the two cell lines. The transfection medium is the normal culture medium (with serum) with which vesicle vector (pure diC14-amidine or diC14-amidine/PE/DNA) has been mixed under the conditions described in the general procedure.
(§5) After incubation, the cells are treated as described above; the CHO cells are transferred after 6 h into 100 mm culture dishes. The two cell lines continue to grow for 36 h before the CAT assay performed as described by Gorman et al., B.H. (1982), Mol. Cell. Biol. 2, 1044-1051; in brief, the cell lysates are incubated at 37° C. with [^14C]chloramphenicol and acetyl CoA for 2 h and extracted with ethyl acetate. The organic phase is eluted by TLC (thin-layer chromatography) with chloroform/methanol 95:5. The acetylation of chloramphenicol is determined by autoradiography on the chromatograms and counting of the spots on the plate.
(§6) Table 5 below gives the comparison of the transfection efficiency of the CAT gene for diC14 and the product DOTAP® marketed by Boehringer Mannheim, expressed as percentage of acetylated chloramphenicol in the cellular extract, under identical experimental conditions.

K562 cells = experiment: Transfection of K562 suspension cells with CAT plasmid, CAT assay; assay type: cell-based, human; conditions: 3 h incubation, medium with serum
Experimental: as §1
The suspension containing the complex (diC14-amidine-DNA or diC14-amidine/PE-DNA) is gently mixed with 10 ml of medium. The mixture thus formed constitutes the “transfection medium”. Aliquots of 10^6 cells are centrifuged and the pellets are resuspended in the transfection medium. The cell suspensions are distributed into 100 mm culture dishes. The suspensions are incubated for the desired period; after incubation, the cells are centrifuged and resuspended in 10 ml of fresh medium and then cultured normally.
as §2, §3
[…] The CHO cells (adherent) are plated in the 6-well culture dishes the day before the experiment in an amount of 10^6 cells/well; while the K562 cells (in suspension) are used in an amount of 10^6 cells per experiment.
as §4
as §5, with “The organic phase is eluted by TLC (thin-layer chromatography) with chloroform/methanol 95:5.” left out
as §6

[1] = vector composition 2 + 5 (μg) plasmid DNA + cationic vesicles
[2] = vector composition 5 + 10 (μg) plasmid DNA + cationic vesicles

Structure (SMILES): CCCCCCCC/C=C\CCCCCCCC(=O)OCC(C[N+](C)(C)C)OC(=O)CCCCCCC/C=C\CCCCCCCC.COS(=O)(=O)[O-] (stereo not drawn) [DOTAP, N-(2,3-dioleoyloxy)propyl-N,N,N-trimethylammonium methyl sulfate, reference compound]
- transfection efficiency of the CAT gene, percentage of acetylated chloramphenicol in the cellular extract (CHO cells; [1]): 32%
- transfection efficiency of the CAT gene, percentage of acetylated chloramphenicol in the cellular extract (CHO cells; [2]): 40%
- transfection efficiency of the CAT gene, percentage of acetylated chloramphenicol in the cellular extract (K562 cells; [1]): 29%
- transfection efficiency of the CAT gene, percentage of acetylated chloramphenicol in the cellular extract (K562 cells; [2]): 36%

Structure (SMILES): CCCCCCCCCCCCCCN=C(CCNCCCCCCCCCCCCCC)NC(C)(C)C [diC14-t-but, 3-tetradecylamino-N-tert-butyl-N′-tetradecylpropionamidine]
- transfection efficiency of the CAT gene, percentage of acetylated chloramphenicol in the cellular extract (CHO cells; [1]): 63%
- transfection efficiency of the CAT gene, percentage of acetylated chloramphenicol in the cellular extract (CHO cells; [2]): 65%
- quantities needed for transfection efficiencies relative to available commercial products (CHO cells; compared with DOTAP (Boehringer Mannheim) and Lipofectin (Gibco BRL), CHO and K562 cells): two to three times lower
- transfection efficiency of the CAT gene, percentage of acetylated chloramphenicol in the cellular extract (K562 cells; [1]): 60%
- transfection efficiency of the CAT gene, percentage of acetylated chloramphenicol in the cellular extract (K562 cells; [2]): 68%
